Measured values reported in US20200338144A1, “AGENT FOR PREVENTING OR TREATING SMALL INTESTINAL INJURY INDUCED BY NON-STEROIDAL ANTI-INFLAMMATORY DRUG AND PROTON PUMP INHIBITOR” (priority 2017, published 2020).

Tested on: small intestinal injury induced by an NSAID and a PPI
Assay: Test 1: rate of change of hematocrit values in rats given an NSAID and a PPI
Format: in vivo, Wister male rats
Conditions: bacteria 1×10^9 cfu/animal oral once a day
Procedure: Frozen stocks of the following bacterial strains were statically cultured in GAM broth at 37° C. for 24 hours: the Bifidobacterium bifidum G9-1 strain (B. bifidum G9-1) (Accession No. NITE BP-817), the Bifidobacterium longum reference strain JCM 1217^T (B. longum JCM 1217) (purchased from Japan Collection of Microorganisms (JCM), RIKEN BioResource Research Center), the Bifidobacterium infantis reference strain JCM 1222^T (B. infantis JCM 1222) (purchased from JCM), the Bifidobacterium adolescentis reference strain JCM 1275^T (B. adolescentis JCM 1275) (purchased from JCM), and the Bifidobacterium dentium reference strain JCM 1195^T (B. dentium JCM 1195) (purchased from JCM). Each of the bacterial liquid cultures was inoculated into fresh GAM broth at a ratio (by volume) of liquid culture to GAM broth of 1:100, and statically cultured at 37° C. for 24 hours. […]
The centrifuged bacterial cells were suspended in 0.75 mL of physiological saline. […] The colonies appeared on the plates were counted, and the number of viable bacteria was calculated based on the dilution factor. […]
At the start of the experiments, the blood was collected from the tail vein with hematocrit capillary tubes (Thermo Fisher Scientific K.K.) to measure hematocrit values. […] After grouping, the body weight of the animals was measured for nine days, and one of the PPIs (10 mg/kg) was intraperitoneally administered twice a day. […]

## Bifidobacterium longum
Ibuprofen 10 mg/kg oral + lansoprazole 10 mg/kg i.p. twice a day, FIG. 7
  inhibitory effect on small intestinal injury (hematocrit reduction) induced by ibuprofen and lansoprazole: higher inhibitory effect
Ibuprofen 10 mg/kg oral + omeprazole 10 mg/kg i.p. twice a day, FIG. 4 (n=5)
  inhibitory effect on small intestinal injury (hematocrit reduction) induced by ibuprofen and omeprazole: higher inhibitory effect
